In US11917993B2, “Antimicrobial compositions” (LANXESS Corporation, priority 2017, dated 2024):

Tests used:
Assay type in all cases: cell-based
[1] = tested on: K. aerogenes (ATCC 13048) and P. aeruginosa (ATCC 9027); assay: Challenge testing in tryptic soy broth at pH 9, time points from ASTM 2574; conditions: pH 9, tryptic soy broth, up to one week
Source text: EP testing evaluates results at the 2-day, 7-day, 14-day, and 28-day marks. […] Strains of K. aerogenes (ATCC 13048) and P. aeruginosa (ATCC 9027) were utilized for this testing as they are commonly found in many products, including without limitation cosmetics and coatings. These organisms were challenged in the soy broth using the same methods described in the Challenge Testing Methodology section. The time points were selected from ASTM 2574, which is a method for evaluating antimicrobial efficacy in waterborne emulsion based paints.

[2] = tested on: A. brasiliensis, C. albicans, E. coli, P. aeruginosa, S. aureus; assay: Microbe challenge testing (USP 51 / EP) in tryptic soy broth growth media; conditions: for effectiveness against microbe strains compared to no antimicrobial: 0.5 wt. %; for concentration achieving passing efficacy according to EP criteria / concentration achieving passing efficacy according to USP-51 criteria / efficacy versus bacteria, yeast and mold: tryptic soy broth; for efficacy versus bacteria, yeast and mold: 30 minutes to 28 days
Source text: (§1) One skilled in the art would be able to determine and utilize other industry testing methods useful to evaluate the efficacy of the present inventive compositions.
(§2) EP testing evaluates results at the 2-day, 7-day, 14-day, and 28-day marks.
(§3) For the European Pharmacopeia, a “pass” test for efficacy is a two-log reduction for bacteria after two days, three-log reduction for bacteria after […], two-log reduction for mold and yeast at 14 days and no increase at 28 days.
As such, it is an exceptional test medium and surrogate for evaluating antimicrobial efficacy, particularly for water-based or aqueous applications, although its value is not limited as such.
Product use applications involve a variety of pH conditions. […] In addition, antimicrobial compositions were added in amounts reflecting the wt. % used in an end use product, based on the total weight of all of the components of the end use product.
The efficacy of 3-phenyl propanol in tryptic soy broth growth media at pH 6.5 versus a number of microbes was evaluated according to methods described in the Challenge Testing Methodology section, above.
The efficacy of 3-phenyl propanol in tryptic soy broth growth media at pH 8.0 versus a number of microbes was evaluated according to methods described in the Challenge Testing Methodology section above.

[3] = tested on: A. brasiliensis, C. albicans, E. coli, P. aeruginosa, S. aureus; assay: Microbe challenge testing (USP 51 / EP) in model skin lotion of Table 1
Source text: as §1, §2, §3
Skin Lotion Formulation Experimental—An exemplary, model skin lotion having a pH of 6.5 as set forth below in Table 1 was prepared for testing. The invention is not limited to use in this specific lotion but was used to illustrate the advantages of the invention.
Use of 3-phenyl propanol in the skin lotion formulation as set forth in Table 1 above was evaluated according to methods described in the Challenge Testing Methodology section above. In this efficacy screen study reflected in FIGS. 18 and 19, only the time intervals at 2-day and 14-day were measured, as these are critical time points for USP-51 and European Pharmacopeia. In this example, a triblend or tri-component antimicrobial composition was used comprising 3-phenyl propanol added to the model skin lotion containing both sodium benzoate and benzyl alcohol to enhance the antimicrobial activity at pH 6.5, a common pH for skin lotions.
(§4) In FIG. 21 and FIG. 22, use of 3-phenyl propanol in the skin lotion set forth in Table 1 above was evaluated according to methods described in the Challenge Testing Methodology section using the microbes identified in Example 1. In this example, 3-phenyl propanol was added to the model skin lotion with sodium benzoate at 0.5 wt. % to enhance the antimicrobial activity at pH 6.5. In these examples, 0.5 wt. % of 3-phenyl propanol in addition to 0.5 wt. % sodium benzoate was required to pass the EP 2 day and 14-day criteria.
as §4, with “23” for “21”, “24,” for “22,”, “section above,” for “section”, “benzyl alcohol” for “sodium benzoate”, “8.0.” for “6.5.”
Use of sodium benzoate and benzyl alcohol at pH 6.5 in the skin lotion set forth in Table 1 above was evaluated according to methods described in paragraphs the Challenge Testing Methodology section above, using the microbes identified in Example 1. Again, in this case, only 2-day and 14-day time points were measured.

Question: With `OCc1ccccc1` [benzyl alcohol, reference compound] as the compound, how does the “antimicrobial effectiveness over time” value ([1]; 2.5 wt. %) read?
Answer: unexpected antimicrobial effectiveness

Question: For `OCCCc1ccccc1` [3-phenyl propanol], which “effectiveness against microbe strains compared to no antimicrobial” value ([2]; pH 3, tryptic soy broth, up to 28 days) is on record?
Answer: demonstrated the effectiveness

Question: And the “effectiveness against microbe strains compared to no antimicrobial” value ([2]; pH 10, tryptic soy broth)?
Answer: demonstrated the effectiveness

Question: What about the “concentration achieving passing efficacy according to EP criteria” value ([2]; pH 6.5) of the same compound?
Answer: 1 wt. %

Question: And the “concentration achieving passing efficacy according to USP-51 criteria” value ([2]; pH 6.5)?
Answer: 0.5 wt. %

Question: What about the “efficacy versus bacteria, yeast and mold” value ([2]; pH 6.5, various concentrations) of the same compound?
Answer: efficacious versus bacteria, yeast and mold

Question: And the “concentration achieving passing efficacy according to EP criteria” value ([2]; pH 8.0)?
Answer: 1 wt. %

Question: And the “concentration achieving passing efficacy according to USP-51 criteria” value ([2]; pH 8.0)?
Answer: 0.25 wt. %

Question: What about the “efficacy versus bacteria, yeast and mold” value ([2]; pH 8.0, various concentrations) of the same compound?
Answer: efficacious versus bacteria, yeast and mold

Question: What about the “addition of 3-phenyl propanol meeting the two-day criteria of the European Pharmacopeia” value ([3]; skin lotion pH 6.5 with 0.25 wt. % sodium benzoate and 0.25 wt. % benzyl alcohol) of the same compound?
Answer: 0.35 wt. %

Question: And the “effect of small concentrations on performance against E. coli and S. aureus versus control (0 wt. %)” value ([3]; skin lotion pH 6.5 with 0.25 wt. % sodium benzoate and 0.25 wt. % benzyl alcohol, after 14 days)?
Answer: significantly decreased performance

Question: What about the “loading of 3-phenyl propanol achieving the required 14-day efficacy under European Pharmacopeia criteria” value ([3]; skin lotion pH 6.5 with 0.25 wt. % sodium benzoate and 0.25 wt. % benzyl alcohol, bacteria, mold and yeast) of the same compound?
Answer: approximately 0.35 wt. %

Question: And the “3-phenyl propanol required to pass the EP 2 day and 14-day criteria” value ([3]; skin lotion pH 6.5 with 0.5 wt. % sodium benzoate)?
Answer: 0.5 wt. %

Question: And the “3-phenyl propanol required to pass the EP 2 day and 14-day criteria” value ([3]; skin lotion pH 8.0 with 0.5 wt. % benzyl alcohol)?
Answer: 0.5 wt. %

Question: Which “antimicrobial effectiveness over time” value ([1]; 0.5 wt. %) does the source give for `CC(CO)Cc1ccccc1` (stereo not drawn) [2-methyl-3-phenyl propanol] here?
Answer: unexpected antimicrobial effectiveness
